From ChEMBL document CHEMBL1240454, “1,3-Dioxolane-based ligands incorporating a lactam or imide moiety: structure-affinity/activity relationship at alpha1-adrenoceptor subtypes and at 5-HT1A receptors” (Eur J Med Chem, 2010) come the findings set out here.

As a reminder, the pKb is the Kb on a negative log10 scale, so that one unit is a factor of ten. The Ki is a measure of affinity in units of concentration, obtained from inhibition or displacement. The low end stands for a stronger hold on the target, the high end for a looser hold on the target.

Structures are written as SMILES.

For assay [1], the target named is T1, Alpha-1A adrenergic receptor (Rattus norvegicus) (UniProt P43140).
T1 sequence (whole entry): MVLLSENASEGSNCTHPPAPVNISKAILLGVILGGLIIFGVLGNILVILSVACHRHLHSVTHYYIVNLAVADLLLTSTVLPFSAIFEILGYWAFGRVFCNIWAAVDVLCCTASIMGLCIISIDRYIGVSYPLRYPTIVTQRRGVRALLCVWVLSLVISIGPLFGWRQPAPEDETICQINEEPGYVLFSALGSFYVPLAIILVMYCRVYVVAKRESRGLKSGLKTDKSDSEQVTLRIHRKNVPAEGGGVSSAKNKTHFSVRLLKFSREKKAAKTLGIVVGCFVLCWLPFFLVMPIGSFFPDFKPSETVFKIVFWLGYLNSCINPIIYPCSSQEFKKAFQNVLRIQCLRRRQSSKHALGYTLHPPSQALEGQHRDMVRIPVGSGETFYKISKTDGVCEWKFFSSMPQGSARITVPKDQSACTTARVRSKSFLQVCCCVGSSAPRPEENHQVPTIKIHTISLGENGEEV
Nature of the assay: Antagonist activity at adrenergic alpha1A receptor in Wistar rat prostatic vas deferens assessed as inhibition of (-)-noradrenaline-induced tissue contraction treated 30 mins before (-)noradrenalin challenge. In kind it is functional, tissue-based.

Assay [2] concerns the target T2, Alpha-1D adrenergic receptor (Rattus norvegicus) (UniProt P23944).
T2 sequence (whole entry): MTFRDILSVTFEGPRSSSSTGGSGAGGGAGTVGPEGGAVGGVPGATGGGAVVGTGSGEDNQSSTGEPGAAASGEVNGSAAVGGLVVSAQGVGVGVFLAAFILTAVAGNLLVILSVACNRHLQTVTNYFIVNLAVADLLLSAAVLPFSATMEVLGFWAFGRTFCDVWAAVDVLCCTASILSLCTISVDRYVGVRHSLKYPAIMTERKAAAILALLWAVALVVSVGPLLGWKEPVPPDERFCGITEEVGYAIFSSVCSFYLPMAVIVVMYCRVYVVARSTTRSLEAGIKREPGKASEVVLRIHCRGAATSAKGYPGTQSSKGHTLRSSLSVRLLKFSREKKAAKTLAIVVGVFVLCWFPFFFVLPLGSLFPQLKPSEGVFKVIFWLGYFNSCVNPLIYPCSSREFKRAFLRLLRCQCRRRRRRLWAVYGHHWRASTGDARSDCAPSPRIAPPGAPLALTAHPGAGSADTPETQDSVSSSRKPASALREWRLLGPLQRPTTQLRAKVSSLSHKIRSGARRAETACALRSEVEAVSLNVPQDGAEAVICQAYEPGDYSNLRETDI
Briefly: Antagonist activity at adrenergic Alpha-1D receptor in Wistar rat thoracic aorta assessed as inhibition of (-)-norepinephrine-induced vasocontraction treated 30 mins before (-)norepinephrine challenge. Type of assay: functional, tissue-based.

For a further assay, the species on record is Rattus norvegicus. Briefly: Selectivity for adrenergic Alpha-1B receptor in Wistar rat spleen over adrenergic alpha1D receptor in Wistar rat thoracic aorta. In kind it is tissue-based.
Assay [3] has as its target T3, Alpha-1B adrenergic receptor (Homo sapiens, UniProt P35368).
T3 sequence (P35368 whole entry): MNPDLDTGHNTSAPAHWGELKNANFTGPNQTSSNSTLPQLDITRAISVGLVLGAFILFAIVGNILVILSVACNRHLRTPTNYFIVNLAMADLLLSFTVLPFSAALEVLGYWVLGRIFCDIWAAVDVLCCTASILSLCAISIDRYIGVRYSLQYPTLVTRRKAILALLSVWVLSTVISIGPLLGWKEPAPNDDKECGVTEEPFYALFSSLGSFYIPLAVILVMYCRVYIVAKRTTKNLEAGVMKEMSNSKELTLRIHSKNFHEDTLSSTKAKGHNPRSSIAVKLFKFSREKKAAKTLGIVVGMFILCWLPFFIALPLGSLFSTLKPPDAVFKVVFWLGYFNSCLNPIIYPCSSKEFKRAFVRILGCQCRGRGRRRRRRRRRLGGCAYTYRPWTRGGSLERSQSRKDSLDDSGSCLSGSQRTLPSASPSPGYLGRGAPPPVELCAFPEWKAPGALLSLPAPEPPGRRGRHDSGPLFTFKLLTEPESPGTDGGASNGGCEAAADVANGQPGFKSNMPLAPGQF
Description: Displacement [3H]prazosin of human recombinant Alpha-1B adrenergic receptor expressed in CHO cells by rapid filtration technique

The target of assay [4] is T4, Alpha-1D adrenergic receptor (Homo sapiens, UniProt P25100).
T4 sequence (P25100 whole entry): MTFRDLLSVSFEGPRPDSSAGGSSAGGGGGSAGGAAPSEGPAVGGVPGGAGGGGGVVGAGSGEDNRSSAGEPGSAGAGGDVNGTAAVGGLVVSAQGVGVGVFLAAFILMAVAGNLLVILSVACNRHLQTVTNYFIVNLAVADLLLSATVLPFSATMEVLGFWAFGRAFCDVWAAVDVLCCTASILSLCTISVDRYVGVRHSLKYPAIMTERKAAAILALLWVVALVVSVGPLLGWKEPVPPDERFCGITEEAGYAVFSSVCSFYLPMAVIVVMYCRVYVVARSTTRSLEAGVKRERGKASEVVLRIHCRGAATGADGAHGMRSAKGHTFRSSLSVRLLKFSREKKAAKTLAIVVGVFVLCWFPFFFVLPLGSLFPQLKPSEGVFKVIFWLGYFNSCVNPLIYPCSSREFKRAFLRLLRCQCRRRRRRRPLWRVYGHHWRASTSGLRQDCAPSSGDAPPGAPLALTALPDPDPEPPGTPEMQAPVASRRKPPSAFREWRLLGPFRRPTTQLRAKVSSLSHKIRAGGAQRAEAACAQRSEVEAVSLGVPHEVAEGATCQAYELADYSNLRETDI
Description: Displacement [3H]prazosin of human recombinant Alpha-1D adrenergic receptor expressed in CHO cells by rapid filtration technique

Assay [5] has as its target T5, 5-hydroxytryptamine receptor 1A (Homo sapiens, UniProt P08908).
T5 sequence (P08908 whole entry): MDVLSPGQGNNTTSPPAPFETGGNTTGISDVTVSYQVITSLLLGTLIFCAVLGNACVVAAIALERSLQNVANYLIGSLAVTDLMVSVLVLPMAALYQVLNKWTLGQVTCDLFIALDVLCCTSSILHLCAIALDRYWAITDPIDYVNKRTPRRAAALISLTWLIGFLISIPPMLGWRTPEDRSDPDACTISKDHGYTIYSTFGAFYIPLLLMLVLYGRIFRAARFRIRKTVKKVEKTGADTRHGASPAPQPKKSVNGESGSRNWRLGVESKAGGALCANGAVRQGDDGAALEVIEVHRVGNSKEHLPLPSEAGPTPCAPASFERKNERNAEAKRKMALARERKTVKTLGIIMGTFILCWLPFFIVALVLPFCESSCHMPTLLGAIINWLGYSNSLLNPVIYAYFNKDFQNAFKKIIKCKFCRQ

For `COc1ccccc1N1CCN(CC2OCC(c3ccccc3)(c3ccccc3)O2)CC1` (stereo not drawn), the pKb in assay [1] worked out at 8.24; in assay [2] it was 8.14. The Selectivity ratio in the assay listed under Rattus norvegicus is 28. The Ki in assay [3] is 6.76 nM; in assay [4], 0.813 nM; in assay [5], 22.9 nM.

Turning to `COc1ccccc1N1CCN(C[C@H]2CO[C@@](CN3CCCCC3=O)(c3ccccc3)O2)CC1`, the pKb in assay [1] was determined as 7.3; in assay [2], 6.74. Further, the Selectivity ratio in the assay filed under Rattus norvegicus was determined as 0.06. In addition, the figures for the Ki in assay [3], in assay [4] and in assay [5] were 129 nM, 14.1 nM and 5.25 nM, respectively.

Take `COc1ccccc1N1CCN(C[C@@H]2CO[C@@](CN3C(=O)CC4(CCCC4)CC3=O)(c3ccccc3)O2)CC1` (relative stereo): the values for the negative-log Kb (pKb) in assay [1] and in assay [2] were 7.29 and 8.51, respectively. In addition, the Selectivity ratio in the assay listed under Rattus norvegicus is 11. For the same molecule, the values for the inhibition constant Ki in assay [3], in assay [4] and in assay [5] were 10 nM, 1.38 nM and 1.26 nM, respectively.

For `COc1ccccc1N1CCN(C[C@H]2CO[C@](CN3CCCC3=O)(c3ccccc3)O2)CC1` (relative stereo), the values for the pKb in assay [1] and in assay [2] were 7.94 and 6.79, respectively. Further, the Selectivity ratio in the assay filed under Rattus norvegicus worked out at 0.03. Besides, the Ki in assay [3] was 174 nM; in assay [4], 13.5 nM; in assay [5] it was 6.92 nM.

With `COc1ccccc1N1CCN(C[C@@H]2CO[C@](CN3CCCC3=O)(c3ccccc3)O2)CC1` (relative stereo), the pKb worked out at 7.34 in assay [1] and 7.43 in assay [2]. Further, the Selectivity ratio in the assay listed under Rattus norvegicus is 0.1. Moreover, the inhibition constant (Ki) in assay [3] is 70.8 nM; in assay [4] it was 5.25 nM; in assay [5] it was 11.2 nM.

As for `COc1ccccc1N1CCN(C[C@@H]2CO[C@@](CN3CCCCC3=O)(c3ccccc3)O2)CC1` (relative stereo), the pKb in assay [1] was found to be 7.32; in assay [2], 7.29. In the assay listed under Rattus norvegicus, the Selectivity ratio is 0.1. Further, the figures for the Ki in assay [3], in assay [4] and in assay [5] were 51.3 nM, 1.48 nM and 5.13 nM, respectively.

Turning to `COc1ccccc1N1CCN(C[C@H]2CO[C@@](CN3CCCCCC3=O)(c3ccccc3)O2)CC1` (relative stereo), the pKb in assay [1] was 8.97; in assay [2], 7.57. The Selectivity ratio in the assay filed under Rattus norvegicus stood at 0.1. Further, the Ki is 72.4 nM in assay [3], 4.07 nM in assay [4] and 5.62 nM in assay [5].

Turning to `COc1ccccc1N1CCN(C[C@@H]2CO[C@@](CN3CCCCCC3=O)(c3ccccc3)O2)CC1` (relative stereo), the negative-log Kb (pKb) came out at 7.18 in assay [1] and 7.75 in assay [2]. Also, the Selectivity ratio in the assay listed under Rattus norvegicus stood at 0.5. Further, the figures for the Ki in assay [3], in assay [4] and in assay [5] were 18.2 nM, 2.51 nM and 7.24 nM, respectively.

Turning to `COc1ccccc1N1CCN(C[C@H]2CO[C@@](CN3C(=O)CCC3=O)(c3ccccc3)O2)CC1` (relative stereo), the pKb in assay [1] is 7.45; in assay [2] it was 6.42. The Selectivity ratio in the assay listed under Rattus norvegicus was determined as 0.2. Also, the values for the inhibitory constant (Ki) in assay [3], in assay [4] and in assay [5] were 85.1 nM, 39.8 nM and 5.13 nM, respectively.

For the molecule `COc1ccccc1N1CCN(C[C@@H]2CO[C@@](CN3C(=O)CCC3=O)(c3ccccc3)O2)CC1` (relative stereo), the negative logarithm of the Kb (pKb) in assay [1] was 7.32; in assay [2], 7.78. Moreover, the Selectivity ratio in the assay listed under Rattus norvegicus is 5. The Ki in assay [3] is 224 nM; in assay [4], 16.2 nM; in assay [5] it was 25.7 nM.

`COc1ccccc1N1CCN(C[C@H]2CO[C@@](CN3C(=O)CCCC3=O)(c3ccccc3)O2)CC1` (relative stereo): the pKb in assay [1] came out at 7.09; in assay [2], 6.19. The Selectivity ratio in the assay filed under Rattus norvegicus was found to be 0.1. Moreover, the results for the inhibition constant Ki in assay [3], in assay [4] and in assay [5] were 46.8 nM, 32.4 nM and 3.16 nM, respectively.

For `COc1ccccc1N1CCN(C[C@@H]2CO[C@@](CN3C(=O)CCCC3=O)(c3ccccc3)O2)CC1` (relative stereo), the pKb in assay [1] is 7.36; in assay [2], 7.57. In addition, the Selectivity ratio in the assay filed under Rattus norvegicus came to 2. Besides, the Ki in assay [3] was 132 nM; in assay [4], 8.51 nM; in assay [5] it was 44.7 nM.

In the case of `COc1ccccc1N1CCN(C[C@H]2CO[C@@](CN3C(=O)CC4(CCCC4)CC3=O)(c3ccccc3)O2)CC1` (relative stereo), the negative-log Kb (pKb) worked out at 7.72 in assay [1] and 6.78 in assay [2]. Further, the Selectivity ratio in the assay listed under Rattus norvegicus was determined as 0.2. In addition, the Ki in assay [3] was 9.33 nM; in assay [4], 4.79 nM; in assay [5] it was 2.63 nM.
